Where a name gives a salt, the structure may show the parent alone.
Assay: Conversion of API to insoluble tannate complex in reaction mixtures (centrifugation, % converted insoluble)
Format: physicochemical
Conditions: for conversion to the tannate complex at reduced Neusilin® levels: ½ (4.4 wt%) and ¼ (2.2 wt%) Neusilin®
Procedure: The following example is a series of reaction mixtures for suspension formulations containing phenylephrine HCl, tannic acid and MAS or various concentrations of Neusilin®:
Analysis of the above suspensions was carried out by removing 10 gms of product and centrifuging. The amount of API found in the insoluble portion of the suspension was reported as the % converted insoluble and the liquid portion as the % converted soluble.
Analysis of the above suspension was carried out by removing 10 gms of product and centrifuging. The amount of API found in the insoluble portion of the suspension was reported as the % converted insoluble and the liquid portion as the % converted soluble.

Which results are given for `CCN(CC)CCOCCOC(=O)C1(c2ccccc2)CCCC1` [carbetapentane, Carbetapentane Citrate]?
effect of Neusilin® on level of conversion to the tannate complex compared to MAS (Neusilin® versus MAS, FIG. 2, FIG. 3): does not significantly affect the level of conversion; conversion to the tannate complex at reduced Neusilin® levels: same level of conversion

For `CNC[C@H](O)c1cccc(O)c1` [phenylephrine, Phenylephrine HCl], which “increase in conversion to the tannate complex with Neusilin® in the suspension” value (Neusilin® 8.7 wt% versus MAS 8.7 wt%, FIG. 1) is on record?
Its value is > 30%.

And the “conversion to the tannate complex at reduced Neusilin® levels” value?
Its value is “same increase in conversion”.
